For orientation: Kd means a measure of binding affinity in units of concentration. Read a high Kd as lower affinity.

From patent EP4722228A1, “NEW COMPOUND TARGETING MUSK AND USE THEREOF” (The University of Tokyo, priority 2023, dated 2024) come the findings set out here.

Bridge positions count the residues as written; N and C are the ends. Square brackets hold non-standard residues; d marks the D form. Peptide text beside a SMILES is read from it. I, II: the chains in the order shown. * marks the point of attachment. Palmitoyl = CCCCCCCCCCCCCCCC(=O)*; PEG3 = NCCOCCOCCOCCC(=O)O; Dap = NC[C@H](N)C(=O)O

In one experiment the target is T1, mouse MuSK (Mus musculus, UniProt Q61006).
T1 construct: made in house
T1 sequence (Q61006 22-494 limits assumed): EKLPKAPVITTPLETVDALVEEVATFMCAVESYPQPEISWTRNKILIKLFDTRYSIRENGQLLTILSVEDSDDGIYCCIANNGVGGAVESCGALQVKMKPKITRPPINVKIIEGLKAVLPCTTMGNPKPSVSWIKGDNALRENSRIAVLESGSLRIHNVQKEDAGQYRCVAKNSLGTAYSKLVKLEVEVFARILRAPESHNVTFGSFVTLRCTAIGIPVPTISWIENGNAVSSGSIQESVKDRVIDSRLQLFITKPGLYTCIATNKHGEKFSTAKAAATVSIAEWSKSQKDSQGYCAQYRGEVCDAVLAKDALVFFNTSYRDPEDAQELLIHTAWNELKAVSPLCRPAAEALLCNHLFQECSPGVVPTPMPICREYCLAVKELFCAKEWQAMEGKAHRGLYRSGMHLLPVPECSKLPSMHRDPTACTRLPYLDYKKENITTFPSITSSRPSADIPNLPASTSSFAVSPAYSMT
As to the kind of experiment: SPR binding activity test to mouse MuSK (Biacore). The note with it: Table 5. As for the experimental part:
The strength of binding between MuSK and the cyclic peptides was evaluated by quantitatively measuring the binding kinetics (binding affinity (dissociation constant) KD) of the cyclic peptides to MuSK immobilized on a sensor chip via an Fc tag, using surface plasmon resonance (SPR).
According to the standard immobilization protocol provided by the manufacturer, Fc-tagged human/mouse/rat MuSK was immobilized on a Protein G chip or a Protein A chip (Cytiva). A running buffer for the monomer/dimer peptides contained 0.010 M phosphate, 0.14 M NaCl, 0.0027 M KCl, 0.05% (v/v) Tween 20, and 0.1% (v/v) DMSO. A running buffer for the monomer/dimer U-bodies contained 0.010 M phosphate, 0.14 M NaCl, 0.0027 M KCl, and 0.05% (v/v) Tween 20. A series of concentrations of each monomer peptide, dimer peptide, monomer U-body, and dimer U-body was injected as analytes. A 1:1 binding fitting analysis was applied using Biacore evaluation software, and ka, kd, and KD values were determined.
Fc-tagged human MuSK was prepared according to the procedure described in Example 1(1). In addition, Fc-tagged mouse MuSK was used by expressing a nucleotide sequence encoding the Fc-tagged mouse MuSK extracellular domain (SEQ ID NO: 34). […]
The affinity of the U-bodies and their complexes obtained as described above for MuSK of human, rat, and mouse was evaluated (binding activity test). […]

For a further experiment, the system named is rat PTMG model. Description: Rat PTMG myasthenia gravis model induced by anti-acetylcholine receptor monoclonal antibody (mAb35). The experiment is classed as in vivo. The conditions noted are these: 0-72 hr after antibody. As for the experimental part: (§1) 5-week-old female rats (n=20, LEW/CrlCrlj, 4 weeks old when carried in, Jackson Laboratory Japan) were divided into four groups (Group A, Group B, Group C, and Group D) using body weight measurement results as indexes. Vehicle was administered to Group A, and the test compound MuSK7-pal dissolved in vehicle was administered intravenously to each of Group B (3 mg/kg), Group C (2 mg/kg), and Group D (1 mg/kg) (Day 0). Two hours after intravenous administration, an anti-nicotinic acetylcholine receptor monoclonal antibody (mAb35, National Hospital Organization Nagasaki Kawatana Medical Center) dissolved in PBS (pH 7.4) as a drug for inducing the pathology of myasthenia gravis was administered intraperitoneally to all animals at 200 µg/rat (Day 0). The vehicle, which was a solvent of the compound, was phosphate-buffered saline (PBS) at pH 7.4 containing 20% hydroxypropyl-β-cyclodextrin and 0.02% polysorbate 80 (the same applies to Example 3(2)).
Next, the body weight of the animals was measured before antibody administration (pre) and at 0, 9, 24, 33, 48, 57, and 72 hours (hr) after antibody administration. The movement, muscle strength, and grip strength of the animals were evaluated by the following tests. […]
as §1, with “(n=24,” for “(n=20,”, “(0.5” for “(3”, “(0.25” for “(2”, “(0.1” for “(1”, “0).” for “0). The vehicle, which was a solvent of the compound, was phosphate-buffered saline (PBS) at pH 7.4 containing 20% hydroxypropyl-β-cyclodextrin and 0.02% polysorbate 80 (the same applies to Example 3(2)).”
The movement of the animals was evaluated at each time point of 9, 24, 33, 48, 57, and 72 hours (hr) after antibody administration according to six-level evaluation criteria (Score). The evaluation criteria were the same as those in (1) B above. […]

Compound `CCCCCCCCCCCCCCCC(=O)NCCCC[C@H](NC(=O)[C@H](CNC(=O)CCOCCOCCOCCNC(=O)CNC(=O)[C@@H]1CSCC(=O)N[C@H](Cc2ccc(O)cc2)C(=O)N2CCC[C@H]2C(=O)N[C@@H](CO)C(=O)N[C@@H](Cc2ccc(O)cc2)C(=O)N[C@@H](Cc2c[nH]cn2)C(=O)N[C@@H]([C@@H](C)O)C(=O)N[C@@H](CC(N)=O)C(=O)N[C@@H](C(C)C)C(=O)N[C@@H](C(C)C)C(=O)N[C@@H](C)C(=O)N[C@@H](CO)C(=O)N[C@@H](CC(C)C)C(=O)N[C@@H](CCCCN)C(=O)N[C@@H](CCCNC(=N)N)C(=O)N1)NC(=O)CCOCCOCCOCCNC(=O)CNC(=O)[C@@H]1CSCC(=O)N[C@H](Cc2ccc(O)cc2)C(=O)N2CCC[C@H]2C(=O)N[C@@H](CO)C(=O)N[C@@H](Cc2ccc(O)cc2)C(=O)N[C@@H](Cc2c[nH]cn2)C(=O)N[C@@H]([C@@H](C)O)C(=O)N[C@@H](CC(N)=O)C(=O)N[C@@H](C(C)C)C(=O)N[C@@H](C(C)C)C(=O)N[C@@H](C)C(=O)N[C@@H](CO)C(=O)N[C@@H](CC(C)C)C(=O)N[C@@H](CCCCN)C(=O)N[C@@H](CCCNC(=N)N)C(=O)N1)C(N)=O` [MuSK7-pal] (I: {CH2CO}-[dY]PSYHTNVVASLKRCG[PEG3][Dap]K(Palmitoyl)-NH2 / II: {CH2CO}-[dY]PSYHTNVVASLKRCG[PEG3]; amide I:18-II:C; thioether I:N-I:15, II:N-II:15) yielded a Kd on mouse MuSK of 8.8 nM. Also, the body weight change entry is recorded as “the degree of decrease in body weight was milder than that in Group A” with rat PTMG model (0.1 mg/kg intravenous (Group D, low-dose study)); “the degree of decrease in body weight was milder than that in Group A” with rat PTMG model (0.25 mg/kg intravenous (Group C, low-dose study)); “the degree of decrease in body weight was milder than that in Group A” in the experiment on rat PTMG model (0.5 mg/kg intravenous (Group B, low-dose study)); “the degree of decrease in body weight was milder than that in Group A” with rat PTMG model (2 mg/kg intravenous (Group C, high-dose study)); “the degree of decrease in body weight was milder than that in Group A” in the experiment with rat PTMG model (3 mg/kg intravenous (Group B, high-dose study)).
